Experimental data taken from paper PMC4862888 (Journal of chromatography. B, Analytical technologies in …, 2015).

Target: human serum albumin (HSA) (Homo sapiens, UniProt P02768)
Assay: zonal elution, high-performance affinity chromatography on entrapped HSA
Assay type: binding

human serum albumin (HSA), sequence (P02768 25-609): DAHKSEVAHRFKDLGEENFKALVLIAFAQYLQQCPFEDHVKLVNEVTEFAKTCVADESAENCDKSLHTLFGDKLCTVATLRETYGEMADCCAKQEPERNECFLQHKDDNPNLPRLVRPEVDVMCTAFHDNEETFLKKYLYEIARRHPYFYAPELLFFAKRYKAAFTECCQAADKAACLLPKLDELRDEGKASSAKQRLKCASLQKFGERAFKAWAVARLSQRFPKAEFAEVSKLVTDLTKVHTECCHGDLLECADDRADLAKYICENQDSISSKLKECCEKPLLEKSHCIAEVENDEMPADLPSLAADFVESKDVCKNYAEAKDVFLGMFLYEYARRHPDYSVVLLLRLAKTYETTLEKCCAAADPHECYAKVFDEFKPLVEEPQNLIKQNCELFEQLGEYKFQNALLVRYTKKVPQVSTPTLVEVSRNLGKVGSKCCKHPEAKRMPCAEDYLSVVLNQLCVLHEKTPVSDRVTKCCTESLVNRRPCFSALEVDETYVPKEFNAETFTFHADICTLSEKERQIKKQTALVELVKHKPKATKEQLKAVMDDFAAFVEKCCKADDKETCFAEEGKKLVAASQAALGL

Kd | Structure (SMILES)
625 µM | O=C(N[C@H](CO)[C@H](O)c1ccc([N+](=O)[O-])cc1)C(Cl)Cl [chloramphenicol]
16.1 µM | CNCCC=C1c2ccccc2CCc2ccccc21 [nortriptyline]

Structure (SMILES) | Kd
CN(C)CCC=C1c2ccccc2CCc2ccccc21 [amitriptyline] | 17.9 µM
